Data set [1] relates to HCV genotype 1a (HCV-1a) replicon cells. Description: HCV genotype 1a replicon luciferase assay (EC50). It is filed as cell-based, hepatitis C virus genotype 1a (H77 clone). The settings on record: Hepatitis C virus, 72 h, 3 days, luciferase (Bright-Glo). The gist of the method: (§1)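 Replicon cells, 8000/well, 3 d, 37 °C; 6-pt 5-fold dilution from 100, 10 or 1 nM, 0.5% DMSO, duplicates; Bright-Glo luminescence → EC50 (nonlinear fit). 1a = H77 K1691R/K2040R/S2204I; 1b = Con1 E1202G/T1280I/K1846T.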

The test system of data set [2] is HCV genotype 1b (HCV-1b) replicon cells. The data set can be described thus: HCV genotype 1b replicon luciferase assay (EC50). It counts as cell-based, hepatitis C virus genotype 1b (Con1 clone). The settings on record: Hepatitis C virus, 72 h, 3 days, luciferase (Bright-Glo). The gist of the method:
as §1
A general note: In antiviral work, replicon cells carry a viral genome segment that copies itself.

Data set [3] can be described thus: Cell Titer-fluor cell activity assay in HCV-1b replicon cells (CC50). It is filed as cell-based. The procedure, abridged:
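CC50 derived by nonlinear fitting of inhibition % from Cell Titer-fluor signal (405/515 nm, 30 min). Cells: genotype 1b Con1 replicon carrying E1202G, T1280I, K1846T, seeded 8000/well with compound for 3 days, 37 °C, 0.5% DMSO; 6 points, 5-fold dilution, top 100, 10 or 1 nM, duplicates.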

Usually EC50 stands for the midpoint of the concentration-response curve. High values mean weaker potency, low ones greater potency. As a reminder, the CC50 is the concentration at which the toxic effect on the cells reaches its halfway point. Low values mean harm at low concentration, high ones better tolerance by the cells. In the case of `COC(=O)N[C@H](C(=O)N1CCC[C@H]1c1ncc(-c2ccc(-c3ccc(-c4cc(Cl)c([C@@H]5CCCN5C(=O)[C@@H](NC(=O)OC)[C@@H](C)OC)[nH]4)cc3)cc2)[nH]1)[C@@H](C)OC` [AG_094], the results for the 50% effective concentration (EC50) in data set [1] and in data set [2] were 0.101 to 1 nM and 0.001 to 0.1 nM, respectively. Moreover, in data set [3], the CC50 at 3 days was over 1 nM.
For the molecule `COC[C@H](NC(=O)OC)C(=O)N1CCC[C@H]1c1ncc(-c2ccc(-c3ccc(-c4ccc([C@@H]5CCCN5C(=O)[C@@H](NC(=O)OC)C(C)C)[nH]4)cc3)cc2)[nH]1` [AG_100], the concentration for a half-maximal effect (EC50) in data set [1] was in the range of 0.101 to 1 nM; in data set [2] it was 0.001 to 0.1 nM. In data set [3], this molecule showed a 50% cytotoxic concentration (CC50) at 3 days of over 1 nM.
On the same counts, the results for `COC(=O)N[C@H](C(=O)N1CCC[C@H]1c1ccc(-c2ccc(-c3ccc(-c4cnc([C@@H]5CCCN5C(=O)[C@@H](NC(=O)OC)C5CCCCC5)[nH]4)cc3)cc2)[nH]1)C(C)C` [AG_101] are 1 to 10 nM, 0.001 to 0.1 nM and over 1 nM.
For `COC(=O)N[C@H](C(=O)N1CCC[C@H]1c1ccc(-c2ccc(-c3ccc(-c4cnc([C@@H](NC(=O)[C@@H](NC(=O)OC)[C@@H](C)OC)C(C)C)[nH]4)cc3)cc2)[nH]1)C(C)C` [AG_102], the EC50 in data set [1] lay within 1 to 10 nM; in data set [2] it was 0.001 to 0.1 nM. In addition, in data set [3], the cytotoxic concentration (CC50) at 3 days is over 1 nM.
Take `COC(=O)N[C@H](C(=O)N1CCCC1c1ncc(-c2ccc3c(c2)oc2cc(-c4ccc([C@@H]5CCCN5C(=O)[C@@H](NC(=O)OC)[C@@H](C)OC)[nH]4)ccc23)[nH]1)[C@@H](C)OC` (stereo partly drawn) [AG_103]: the values for the concentration for a half-maximal effect (EC50) in data set [1] and in data set [2] were 1 to 10 nM and 0.001 to 0.1 nM, respectively. Moreover, the half-maximal cytotoxic concentration (CC50) at 3 days in data set [3] was over 1 nM.
With `COC(=O)N[C@H](C(=O)N1CCC[C@H]1c1[nH]c(-c2ccc(-c3ccc(-c4cnc([C@@H]5CCCN5C(=O)[C@@H](NC(=O)OC)[C@@H](C)O)[nH]4)cc3)cc2)c2c1COC2)C(C)C` [AG_104], the 50% effective concentration (EC50) in data set [1] and in data set [2] was 0.001 to 0.1 nM in each case. In data set [3], this molecule gave a CC50 at 3 days of over 1 nM.
Regarding `COC(=O)N[C@H](C(=O)N1CCC[C@H]1c1ncc(-c2ccc(-c3ccc(-c4[nH]c([C@@H]5CCCN5C(=O)[C@@H](NC(=O)OC)[C@@H](C)OC)c5c4COC5)cc3)cc2)[nH]1)[C@@H](C)O` [AG_105], the EC50 in data set [1] lay in the range of 0.101 to 1 nM; in data set [2], 0.001 to 0.1 nM. The same molecule displayed a CC50 at 3 days in data set [3] of over 1 nM.
For `COC(=O)N[C@H](C(=O)NC1(c2ncc(-c3ccc(-c4ccc(-c5ccc([C@@H]6CCCN6C(=O)[C@@H](NC(=O)OC)[C@@H](C)OC)[nH]5)cc4)cc3)[nH]2)CC1)[C@@H](C)OC` [AG_106], in that order: 10 to 100 nM, 0.001 to 0.1 nM and over 1 nM.
In the case of `CC[C@H](C)[C@H](NC(=O)OC)C(=O)N1CCC[C@H]1c1ncc(-c2ccc(-c3ccc(-c4ccc([C@@H]5CCCN5C(=O)[C@@H](NC(=O)OC)C(C)C)[nH]4)cc3)cc2)[nH]1` [AG_107], the EC50 in data set [1] lay in the range of 1 to 10 nM; in data set [2] it was 0.001 to 0.1 nM. In addition, the cytotoxic concentration (CC50) at 3 days in data set [3] was over 1 nM.
For `COC[C@H](NC(=O)OC)C(=O)N1CCC[C@H]1c1ccc(-c2ccc(-c3ccc(-c4cnc([C@@H]5CCCN5C(=O)[C@@H](NC(=O)OC)[C@@H](C)O)[nH]4)cc3)cc2)[nH]1` [AG_108], in that order: 0.101 to 1 nM, 0.001 to 0.1 nM and over 1 nM.
With `COC[C@H](NC(=O)OC)C(=O)N1CCC[C@H]1c1ccc(-c2ccc(-c3ccc(-c4cnc([C@@H]5CCCN5C(=O)[C@H](COC)NC(=O)OC)[nH]4)cc3)cc2)[nH]1` [AG_109], the 50% effective concentration (EC50) in data set [1] lay within 0.101 to 1 nM; in data set [2] it was 0.001 to 0.1 nM. This molecule yielded a cytotoxic concentration (CC50) at 3 days in data set [3] of over 1 nM.
`COC(=O)N[C@H](C(=O)N1CCC[C@H]1c1ccc(-c2ccc(-c3ccc(-c4cnc([C@@H]5CC6(CCCC6)CN5C(=O)[C@@H](NC(=O)OC)[C@@H](C)OC)[nH]4)cc3)cc2)[nH]1)[C@@H](C)OC` [AG_110]: the 50% effective concentration (EC50) in data set [1] fell in the range of 0.101 to 1 nM; in data set [2], 0.001 to 0.1 nM. The molecule also had a CC50 at 3 days in data set [3] of over 1 nM.

The record behind these values is patent publication US10160771B2, “Hepatitis C virus inhibitors and uses thereof in preparation of drugs” (priority 2014, dated 2018).
